Columns and labels:
[1] = test system: FRDA-iPSC-derived neurons; assay: Neuron viability / compound toxicity in FRDA-iPSC-derived neuron cultures; type: cell-based, human; conditions: even at 10 μM
Protocol: (§1) FIG. 1: Exposure of FRDA-iPSC-derived neurons to [2,6] Naphtyhyridine is the cyclohexyl-[4-(4-phenyl-1-piperazin-1-yl-[2,6]naphthyridin-3-yl)pyridin-2-yl]amine, a chemical inhibitor of PRKD1, leads to an increase in FXN expression while a control compound has no effect. […] FXN mRNA levels were determined by real-time RT-PCR, normalized to RPL13A mRNA levels. *P=0.03.
Importantly, treatment with the compound of formula (II) led to a 25% increase in FXN mRNA expression in FRDA neurons after only 3 weeks of treatment. […] In addition, neuron viability was not affected by exposure to the compound of formula (II), even at 10 μM.

[2] = test system: endogenous FXN gene expression in FRDA-iPSC-derived neurons; assay: FXN mRNA levels in FRDA-iPSC-derived neurons by real-time RT-PCR, normalized to RPL13A; type: cell-based, human; conditions: for effect on FXN expression: FRDA-iPSC-derived neurons, treated for 3 weeks, five concentrations, biological duplicates
Protocol: as §1
For quantitative RT-PCR (qRT-PCR) experiments, total RNA was extracted from GM04078, FRDA-4078iBT, and HEK293T-FF2AP cell lines with the Absolutely RNA Microprep Kit (Stratagene). A 1-μg aliquot of total RNA was reverse transcribed with AffinityScript enzyme (Stratagene) using random hexamers according to the manufacturer's instructions. qRT-PCR was performed on a CFX96 Real-Time PCR System (Bio-Rad) using the SsoAdvanced SYBR Green Supermix (Bio-Rad, #172-5264). Relative RNA levels were calculated from CT values according to the ΔCT method and normalized to GAPDH mRNA or 18S rRNA levels. Reprogrammed cells were washed once and total RNA isolated using TRIzol (Life Technologies). After chloroform extraction, RNA was purified using a RNeasy Plus Kit (Qiagen, Germantown, Md.). RNA purity and concentration were verified using an Aligent 2100 Bioanalyzer (Santa Clara, Calif.). […]
Endoderm: Accutase was used for cell dissociation to single cells, which were then plated on matrigel in mTeSR with rock-inhibitor Y27632 (Calbiochem, Darmstadt, Germany) at a density of 100×10^3 per cm^2. […] In order to quantify the efficiency of differentiation into Pax6-expressing neural progenitors, immunostained cultures were generated and the percentage of Pax6-positive and DAPI-positive cells determined in 10 randomly selected microscopic fields. In order to quantify the efficiency of differentiation into β-III Tubulin-expressing neurons, a similar approach was used with cultures previously treated with cytosine-1-β-D-arabinofuranoside to prevent the expansion of neural progenitors. […]

SMILES: c1ccc(-c2c(-c3ccnc(NC4CCCCC4)c3)nc(N3CCNCC3)c3ccncc23)cc1 [compound of formula (II), cyclohexyl-[4-(4-phenyl-1-piperazin-1-yl-[2,6]naphthyridin-3-yl)pyridin-2-yl]amine]
- neuron viability [1]: not affected
- increase in FXN mRNA expression ([2]; FRDA neurons, after 3 weeks of treatment): 25%
- effect on FXN expression [2]: significant increase
- effect on FXN expression ([2]; listed as cyclohexyl-[4-(4-phenyl-1-piperazin-1-yl-[2,6]naphthyridin-3-yl)pyridin-2-yl]ami): increase
